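Values below derive from 48-hour exposures of cells grown in 96-well plates, with endpoints linearly interpolated between the two concentrations bracketing the appropriate inhibition level. At the TGI there is no net growth.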
Key:
Assay in all cases: NCI tumour cell line growth inhibition, 48 h
[1] = test system: A549 NSCLC
[2] = test system: BT-549 breast
[3] = test system: CCRF-CEM leukemia
[4] = test system: DU-145 prostate
[5] = test system: EKVX NSCLC
[6] = test system: HCT-116 colon
[7] = test system: HL-60(TB) leukemia
[8] = test system: IGROV1 ovarian
[9] = test system: K-562 leukemia
[10] = test system: KM12 colon
[11] = test system: MALME-3M melanoma
[12] = test system: NCI-H522 lung
[13] = test system: NCI/ADR-RES ovarian
[14] = test system: OVCAR-4 ovarian
[15] = test system: OVCAR-8 ovarian
[16] = test system: SK-MEL-2 melanoma
[17] = test system: SN12C renal
[18] = test system: SW-620 colon
[19] = test system: TK-10 renal
[20] = test system: UO-31 renal

Compound	TGI [1] [µM]	TGI [2] [µM]	TGI [3] [µM]	TGI [4] [µM]	TGI [5] [µM]	TGI [6] [µM]	TGI [7] [µM]	TGI [8] [µM]	TGI [9] [µM]	TGI [10] [µM]	TGI [11] [µM]	TGI [12] [µM]	TGI [13] [µM]	TGI [14] [µM]	TGI [15] [µM]	TGI [16] [µM]	TGI [17] [µM]	TGI [18] [µM]	TGI [19] [µM]	TGI [20] [µM]
CC[N+](CC)(CCNCC(N)=O)CC(N)=O	> 10	> 10	> 10	> 10	> 10	> 10	> 10	> 10	> 10	> 10	> 10	> 10	> 10	> 10	> 10	> 10	> 10	> 10	> 10	> 10
COc1ccc(C(C)NNC(=O)c2ccncc2)c(OC)c1 (stereo unspecified)	> 100	> 100	> 100	> 100	> 100	> 100	> 100	> 100	> 100	> 100	> 100	> 100	> 100	> 100	> 100	> 100	> 100	> 100	> 100	> 100
CNn1c(-c2ccccc2)n[nH]c1=O	> 100	> 100	> 100	> 100	> 100	> 100	> 100	> 100	> 100	> 100	> 100	> 100	> 100	> 100	> 100	> 100	> 100	> 100	> 100	> 100
CC(=O)OCc1cc(CCC(=O)NCCNc2c3ccccc3nc3ccccc23)cc(COC(C)=O)c1O[Si](C)(C)C(C)(C)C	24.4	34.2	20.5	28.1	36.1	31.1	6.2	27.6	6.49	15.4	25.6	21.8	45.9	21.1	39.9	23.8	3.38	30.1	23.2	31.1
C[N+](C)([O-])CCC=C1c2ccccc2CCc2ccccc21	> 100	> 100	40.7	70.9	59	> 100	30.6	33.1	52	36.3	45.4	34.4	69.3	97	52.6	36.8	62.9	62.3	> 100	–
CCc1nc(N)nc(N)c1-c1ccc2nn(-c3ccccc3)[n+]([O-])c2c1	27.8	26.3	36.8	20.1	35.1	15.5	27.4	23.2	22.9	41	22.7	11.6	38.8	56.6	26.8	28.7	24.4	18.3	55.6	35.2
C=C1C[C@@H]2O[C@H]3[C@H]4[C@@H](C[C@@H](C)[C@@H](OC(C)=O)[C@H]42)[C@@H](C)CO[C@@]3(C)[C@H](OC(C)=O)C[C@H]1O	> 100	> 100	49.5	> 100	> 100	> 100	36.8	> 100	63.7	> 100	> 100	> 100	> 100	> 100	> 100	> 100	> 100	> 100	> 100	> 100
S=C(NCc1ccccc1)c1nc[nH]c1C(=S)NCc1ccccc1	15.1	27.2	12.1	21.6	17	17.9	25.5	19.8	29.7	20	24.6	21.3	16.3	20	18.8	22.2	25	20.8	23.9	–
O=C(NCCCCCCNC(=O)c1cccc2ccccc12)Nc1cccc2ccccc12	> 100	> 100	> 100	> 100	> 100	> 100	> 100	> 100	> 100	> 100	> 100	> 100	> 100	> 100	> 100	> 100	> 100	> 100	> 100	> 100
COc1nc(C(=O)NNC(=O)c2nc(OC)c3ccccc3c2-c2ccccc2)c(-c2ccccc2)c2ccccc12	> 100	> 100	> 100	> 100	> 100	> 100	> 100	> 100	> 100	> 100	> 100	> 100	> 100	> 100	> 100	> 100	> 100	> 100	> 100	> 100
CS(=O)(=O)Nc1ccc(N2Cc3cnc4ccc5[nH]ccc2c5c34)cc1	> 100	51.3	> 100	40.9	> 100	27.8	64.4	79.9	38.7	> 100	19.1	29.5	> 100	46.6	62.5	31.7	35	> 100	89.1	> 100
O=C(CCCn1ccnc1[N+](=O)[O-])NCCn1cncc1[N+](=O)[O-]	> 100	> 100	> 100	> 100	> 100	> 100	> 100	> 100	> 100	> 100	> 100	> 100	> 100	> 100	> 100	> 100	> 100	> 100	> 100	> 100
O=[N+]([O-])c1ccc(/C=N/n2c(CO)nc3ccccc32)o1	36.5	27.6	36.8	13.9	23.6	7.86	9.41	6.09	62.7	15.4	5.44	4.43	74.7	21.8	25.3	24.1	18.1	29.1	19.2	22.9
Cc1cc(C)c(S(=O)(=O)N2CCCN(S(=O)(=O)c3c(C)cc(C)cc3C)OCCCON(S(=O)(=O)c3c(C)cc(C)cc3C)CCCN(S(=O)(=O)c3c(C)cc(C)cc3C)OCCCO2)c(C)c1	> 100	> 100	> 100	> 100	> 100	> 100	> 100	> 100	> 100	> 100	> 100	> 100	> 100	> 100	> 100	> 100	–	> 100	> 100	> 100
Oc1ccc2ccccc2c1/C=C/c1ccc2c(Br)cc(Br)c(O)c2n1	20.5	26.8	15.6	25.7	15.3	11.4	12.3	32.5	22.5	30.9	32	14.3	12.9	33.4	20.1	29.7	20.9	25.1	23.2	17.1
COc1cc(-c2cc(=O)c3c(OC)c(OC)c(OC)c(OC)c3o2)c(OC)c(OC)c1OC	> 100	56.8	> 100	> 100	> 100	> 100	> 100	> 100	> 100	90.3	> 100	94.6	66.8	> 100	> 100	49.4	> 100	> 100	> 100	88.6
CCN(CC)c1c(N(CC)CC)c(=O)c1=O	43.7	35.8	18.9	23.3	28.6	20.8	7.58	8.01	> 100	48.4	13.2	4.86	61.2	46.3	27.6	66.9	24	20.1	8.7	12
O=[N+]([O-])c1cc2oc(COc3ccccc3)nc2cc1Cl	> 100	60	> 100	> 100	73.6	44.9	> 100	> 100	> 100	51.3	94.5	46.3	61.2	> 100	> 100	44.2	65.1	> 100	> 100	66
COc1ccc(C2CC(=O)CC(c3ccc(OC)cc3)C23C(=O)NC(=O)NC3=O)cc1 (stereo unspecified)	–	> 100	> 100	> 100	> 100	> 100	81	80	> 100	72.9	73	60.2	> 100	> 100	> 100	46.7	97.9	50.2	> 100	> 100
C=CCNC1=C2C[C@@H](C)C[C@@H](OC)[C@H](OC(=O)CCCCN)[C@H](C)/C=C(\C)[C@@H](OC(N)=O)[C@H](OC)/C=C\C=C(/C)C(=O)NC(=CC1=O)C2=O	25.2	33.4	56.4	18.5	26.9	28	30.3	28.6	> 100	18	19.6	28.8	> 100	30.8	37.3	9.98	27.1	55.1	29	34.2
CC1CC(N)=Nc2ccccc2N1 (stereo unspecified)	> 100	> 100	> 100	> 100	> 100	> 100	> 100	> 100	> 100	> 100	> 100	> 100	> 100	> 100	> 100	> 100	> 100	> 100	> 100	> 100
COc1ccc(CC2c3cc(Oc4cc(CC5c6cc(OC)c(OC)cc6CCN5C)ccc4O)c(OC)cc3CCN2C)cc1 (stereo unspecified)	13.4	13.4	1.57	6.34	15.9	4.6	15.5	16.2	5.28	5.33	17.6	14.1	14.4	8.77	13.4	15.6	14.8	7.29	11	11.2
N#CSC#Cc1ccc(C#CSC#N)cc1	33.7	32.4	> 100	28.3	37.2	38.7	> 100	30.5	> 100	36.8	51.9	29	42.5	36	42.6	38.8	34.6	44.1	31.3	33.6
